In patent US20130331357A1, “COMBINATION THERAPY OF HSP90 INHIBITORY COMPOUNDS WITH PROTEASOME INHIBITORS” (SYNTA PHARMACEUTICALS CORP., priority 2011, published 2013):

Legend:
H1703 cells = test: Cell Titer-Glo cell viability assay, H1703 NSCLC cells; format: cell-based, Human; conditions: for cells killed: viability 72 hr later
Description: Cells were maintained at 37° C., 5% CO2 atmosphere.
[…] […] Viability was assessed 72 hr later.
Combination Index (CI) was then determined using the median effect analysis software CalcuSyn 2.0 (CalcuSyn, Inc.). A Combination Index greater than 1, equal to 1 or less than 1 indicates antagonism, additivity and synergism, respectively.

H1838 cells = test: Cell viability assay, H1838 NSCLC cells; format: cell-based, Human; conditions: bortezomib day 1, compound 1 day 2; 72 hours after compound 1 exposure (FIG. 6)
Description: Human H1703, H1975, H1838 NSCLC cells, U266 multiple myeloma cells, HCT116 colon cancer cells and Detroit562 head and neck cancer cells were purchased from the American Type Culture Collection (Manassas, Va.). H1975, H1703, H1838 and U266 cells were grow in RPMI media, HCT116 cells were grown in McCoy's media and Detroit562 cells were grown in MEM. Fetal bovine serum (10%) was added to all media, along with 2 mM L-glutamine and antibiotics (100 IU/ml penicillin and 100 μg/ml streptomycin) purchased from Sigma Aldrich. Cells were maintained at 37° C., 5% CO2 atmosphere.
Cell viability was measured using the Cell Titer-Glo assay (Promega). In brief, cells were plated in 96-well plates in triplicate at optimal seeding density (determined empirically for each cell line) and incubated at 37° C., 5% CO2 atmosphere for 24 hr prior to the addition of drug or vehicle (0.3% DMSO) to the culture medium. At the end of the assay, Cell Titer-Glow was added to the wells per manufactures recommendation, shaken for two minutes and incubated for 10 minutes at room temperature. Luminescence (0.1 sec) was measured with a Victor II microplate reader (Perkin Elmer) and the resulting data were used to calculate cell viability, normalized to vehicle control.

[1] = Phase 1 clinical investigations, intravenous Compound 1; format: in vivo, human
Description: Compound 1 was advanced into phase 1 clinical investigations studying patients with refractory hematologic malignancies using two intravenous schedules of administration: weekly for 3 out of every 4 weeks and twice weekly without breaks dosing by one-hour infusion.

[2] = bortezomib day 1, compound 1 Day 2, 72 hours after compound 1 exposure (FIG. 4)
[3] = concurrent, one hour on both days 1 and 2, 72 hours after final drug exposure (FIG. 5)

| Compound | cells killed (H1703 cells; bortezomib alone 22 nM, 1 hr exposure Day 1 and Day 2) | cell death by microscopy (H1703 cells; [2]) | cells killed (H1703 cells; bortezomib on its own 15 nM, 8 hr pulse Day 1, washout) | cell death by microscopy (H1703 cells; [3]) | cell death by microscopy (H1838 cells) | cells killed (H1703 cells; compound 1 alone 50 nM, 8 hr pulse, washout) | cells killed (H1703 cells; compound 1 alone 74 nM, 1 hr exposure Day 1 and Day 2) | efficacy signals, hematologic malignancies ([1]; phase 1 AML and CML patients) | cardiac effects following the infusion ([1]; phase 1 patients) | efficacy signals, solid tumors ([1]; phase 1 patients) | patients with Grade 1-2 infusional reactions ([1]; phase 1 patients) | severe hepatotoxicity ([1]; phase 1 patients, unlike geldanamycin-based HSP90 inhibitors) | dose limiting toxicities ([1]; phase 1 program, solid tumors and refractory hematologic malignancies, one-hour infusion) |
| --- | --- | --- | --- | --- | --- | --- | --- | --- | --- | --- | --- | --- | --- |
| CC(C)C[C@H](NC(=O)[C@H](Cc1ccccc1)NC(=O)c1cnccn1)B(O)O [bortezomib, reference compound] | 15% | weak activity | 25% | weak activity | weak activity | – | – | – | – | – | – | – | – |
| CC(C)c1cc(-c2nnc(O)n2-c2ccc3c(ccn3C)c2)c(O)cc1O [compound 1, 3-(2,4-dihydroxy-5-isopropyl-phenyl)-4-(1-methyl-indol-5-yl)-5-hydroxy-[1,2,4] triazole] | – | weak activity | – | weak activity | weak activity | 10% | 15% | declines in peripheral and bone marrow blasts | Moderate tachycardia and PR interval prolongation | partial responses in colorectal cancer and melanoma | 5% | has not been observed | reversible fatigue and diarrhea |
